Experiments:
[1] = test system: Serum cytokine concentration; assay: Serum cytokine protein (Multiplex MSD) after acute restraint stress; format: in vivo, mouse; conditions: restraint stress 2 h + Luma 3 mg/kg IP
Method: Multiplex Assays. In mouse serum, protein levels of IL-1b, IL-6, IL-10 and TNF-alpha are measured using a V-Plex Meso Scale Discovery (MSD) Multiplex spot assay Mouse Neuroinflammation 1 panel (Meso Scale Diagnostics, Rockville, MD). All samples are run in duplicates or triplicates according to manufacturer instructions and analyzed with MSD Discovery Workbench software (Meso Scale Diagnostics).
Restraint Stress Protocol.
Control mice receive vehicle treatment and are returned to their home cage before sample collection. Protein concentration is measured using the Multiplex MSD assay V-Plex technology, normalized to the control group. Results are expressed in pg/mL.

[2] = test system: Hippocampal mRNA expression; assay: Hippocampal mRNA (qRT-PCR) after acute restraint stress; format: in vivo, mouse; conditions: restraint stress 2 h + Luma 3 mg/kg IP; control 0, stressed −0.138
Method: Quantitative Real-Time PCR. […] Heavy phase-lock gel tubes enabled separation of phases following the addition of 400 μL chloroform to the sample and centrifugation at 12,000 rpm for 10 minutes at room temperature. RNA is extracted using Qiagen Rneasy kit (Qiagen, Hilden, Germany). For cDNA synthesis, 2 μg of total RNA is used (SuperScript IV Reverse Transcriptase; ThermoFisher Scientific, Waltham, MA). The purity and concentration of RNA is measured with a Nanodrop spectrophotometer; the optical density (OD) 260/280 and OD 260/230 are within 1.8-2.3. In the hippocampus, 4 key markers of pro- and anti-inflammatory cytokines and chemokines (Il1b: ID Mm00434228_m1, Tnfa: ID Mm00443258_m1, Il6: ID Mm00446190_m1, and Il10: ID Mm01288386_ml; ThermoFisher Scientific) are initially chosen for analysis (n=5-12 per group). […] Mm00840904_m1). […] All mRNAs are measured by qRT-PCR on ABI Prism 7900HT system using TaqMan Gene Expression Assays. […] The results are shown in Table 4B as relative change in mRNA levels for each cytokine gene (Il1b, Il6, Tnfa, Il10) normalized to the control group using the Dct method: Using similar procedures as described above, serum corticosterone levels and hippocampal Cldn5 mRNA expression are measured as well (corticosterone is measured using a commercial ELISA kit).

[3] = test system: patients with schizophrenia; assay: Phase 3 clinical trial in schizophrenia with acute exacerbation of psychosis; format: in vivo, human; conditions: 60 mg or 40 mg lumateperone tosylate once daily for 28 days vs placebo
Method: A randomized, double-blind, placebo-controlled, phase 3 clinical trial was conducted with 450 patients with schizophrenia, aged 18 to 60 years, who were experiencing an acute exacerbation of psychosis. Patients were included if they were experiencing an acute exacerbation of psychosis, defined as a total score on the Brief Psychiatric Rating Scale of […] or higher, with a score of 4 or higher on 2 or more positive symptoms, and onset of the acute episode within 4 weeks of screening. Patients were required to have a score of 4 or higher, indicating moderate to severe disease severity, on the Clinical Global Impression-Severity of Illness (CGI-S) at screening and baseline. […]
The primary efficacy end point was mean change from baseline to day 28 in the Positive and Negative Syndrome Scale (PANSS) total score versus placebo. […] The PANSS subscale scores, social function, safety, and tolerability were also assessed. Primary and key secondary efficacy measures were assessed weekly. Safety was assessed by treatment-emergent adverse events (TEAEs), modified physical examinations, 12-lead electrocardiograms (ECGs), vital signs, and clinical laboratory tests (blood and urine samples for clinical laboratory analysis were collected from all subjects upon screening and on Days 1, 8, 28, and 33, following overnight fast).

CN1CCN2c3c(cccc31)[C@@H]1CN(CCCC(=O)c3ccc(F)cc3)CC[C@@H]12 [Lumateperone, 4-((6bR,10aS)-3-methyl-2,3,6b,9,10,10a-hexahydro-1H-pyrido[3′,4′: 4,5]pyrrolo[1,2,3-de]quinoxaline-8 (7H)-yl)-1-(4-fluorophenyl)-1-butanone]
Serum IL-1b concentration ([1]; control 0.7, stressed 1.65): 0.81 pg/mL
Serum TNF-alpha concentration ([1]; control 6.75, stressed 10.28): 7.67 pg/mL
Serum IL-10 concentration ([1]; control 17.18, stressed 86.78): 70.03 pg/mL
Serum IL-6 concentration ([1]; control 141.3, stressed 627.4): 137.7 pg/mL
Hippocampal Cldn5 mRNA expression [2]: 0.330
efficacy on symptoms of schizophrenia (PANSS total score, CGI-S) [3]: effective for improving the symptoms of schizophrenia
safety and tolerability [3]: favorable safety profile
